# Assay results from US6699901B1, “Dicarboxylato diammine platinum derivatives and compositions comprising them as anti-tumor agents” (priority 2000, dated 2004).
# “Also recorded” adds a separate entry of the source. Where two headings read alike, the source gives them in different places.
# Key:
# [1] = test system: cells of adenocarcinoma of breast; experiment: IC50 on human breast cancer cells; type: cell-based
# Stability in water = type: physicochemical; conditions: after dissolved in water
# [2] = test system: human hepatic cancer cells BEL-7402; experiment: IC50 on human hepatic cancer cells BEL-7402; type: cell-based
# Solubility in water = type: physicochemical
# nude mice = experiment: Acute toxicity dose limiting experiments (LD50)
# Description: The LD50 of the pharmaceutical composition of the invention is tested as follows, for example: […]
# [3] = Effectiveness on oral administration; type: in vivo
# human hepatic cancer H22 = conditions: for response carcinostatic rate: intravenous, daily for seven days
# Description: (§1) The mice were divided into three groups, which were given large dose (LD50×⅕), middle dose (LD50× 1/10) and small dose (LD50× 1/20) respectively. […] Beijing's institute for drug control carried out human hepatic cancer H22 nude mice inoculation carcinostatic rate experiments. […] Every group was given 0.2 ml every time per day for seven consecutive days. The mice were put to death thirty days after inoculation.
# [4] = Antitumor effects (test not specified)
# [5] = test system: human hepatic cancer BEL-7402 cells; experiment: Ultra-microstructure of BEL-7402 cells by transmission electronic microscope; type: cell-based; conditions: different doses
# Source text: 3. […] Then the changes of the ultra-microstructure were observed via transmission electronic microscope. […] The vacuoles and the lipid drop in the plasma increased drastically until necrotic changes, karyopyknosis, karyorrhexis, karyolysis and complete disintegration occurred (FIG. 6-FIG. 11).
# e). […] The cells untreated appeared in the shape of irregular polygon, with abundant microvilli on the cell surface, plentiful organelles and different amount of glycogen granules in the plasma. […] The vacuoles and the lipid drop in the plasma increased drastically until necrotic changes, karyopyknosis, karyorrhexis, karyolysis and complete disintegration occurred.
# carnuncle S180 = experiment: Carcinostatic rates against carnuncle S180 in mice; type: in vivo, Kunming mice; conditions: for Mice After Injection: 10 mice before injection
# lung cancer cells = experiment: Selective killing experiment, lung cancer cells; type: cell-based, human; conditions: within a certain range of doses
# melanoma cells = experiment: Selective killing experiment, melanoma cells; type: cell-based, human; conditions: within a certain range of doses
# rats = experiment: Long-term toxicity experiments in rats
# Source text: Thus we can not only know the target organs of toxic reactions and the reversibility of the damages through observing the main body reactions and degrees of injuries after three months of administration, but also determine nontoxic dose to provide reference for therapeutic safe dose.
# c). […] Weighed the rats once a week and adjusted doses according to weight changes. Stopped administration after 12 weeks and continued observing for 2 weeks.
# Kunming mice = experiment: Acute toxicity, IP once a day for ten days, LD50 by Bliss method; type: in vivo
# Source text: a). Divided 50 Kunming mice randomly into 5 groups, each having 10 mice, weighing from 18 g to 22 g and being half male and half female.
# [6] = Toxic reactions in clinical trial (five-degree classification by WHO); type: in vivo, human
# cancer = experiment: Typical cases treated by oral capsules and injections; type: in vivo, human
# Source text: 1. The oral capsules were composed of bicycloplatin and adjuvant.
# 2. […] A course of treatment took 6 times (12 ampoules). The second course of treatment began after an interval of two weeks. After three consecutive courses of treatment, general examination was taken.
# [7] = test system: gastric cancer BGC-823 cells; experiment: Determination of IC50, MTT, BGC-823 cells; type: cell-based
# Description: a). Cultured gastric cancer BGC-823 cells in RPMJ-1640 nutritional fluid containing 15% fetal calf serum; then inoculated them onto 96-well culture plate, 1×10^4 cells per well; Put it in an incubator with temperature of 37° C. and 5% of CO2. […] After 72 hours of culture, added MTT fluid. An hour later, DMSO was added for coloration. OD value was assayed with enzyme labeling instrument. Finally, calculated the response rate of the drug in each concentration and determined IC50 based on the coordinate process.
# [8] = test system: human breast cancer, lung cancer, hepatic cancer, colorectal cancer and ovary cancer; experiment: Nude mice inoculation carcinostatic rate experiments, human cancers; type: in vivo; conditions: for response carcinostatic rate: injected abdominally
# Description: as §1
# [9] = test system: human oral cancer KB cells; experiment: Determination of IC50, MTT, KB cells; type: cell-based; conditions: for Response rate: KB
# hepatic cancer H22 cells = experiment: Carcinostatic rates on hepatic cancer H22 in Kunming mice; type: in vivo; conditions: for Tumor Weight: daily for seven days; for Mice After Injection: 10 mice before injection
# Description: a). Divided 40 Kunming mice with weight ranging from 21 to 22 g, half male and half female randomly into 4 groups. Every group had 10 mice. Inoculated every mouse with 0.2 ml hepatic cancer H22 cells subcutaneously in right abdomen. […] The control group was given normal saline IP. The mice were put to death the day after withdrawal. Weighed the bodies and the tumor, calculated the carcinostatic rates.
# [10] = test system: human hepatic cancer BEL-7402 cells; experiment: Dynamic growth of BEL-7402 cells cultured in vitro; type: cell-based; conditions: 10 μg/ml and 20 μg/ml, observed for eight days
# Description: 1. […] From the third day on, the survival cells in the treated group were less than that in the control group, in which the cells grew logarithmically while those in the treated group decreased gradually. The difference among the groups became wider as time went by; moreover, the survival cells of 20 μg/ml group were less than those of 10 μg/ml group.
# c). […] Then observed the dynamic growth of the cells for eight days. […] From the third day on, the cells in the control group grew logarithmically while those in the treated group decreased gradually. The difference among the groups became wider as time went by.
# [11] = after two times of administration of the smallest dose based on LD50
# [12] = 12th week of administration and 2 weeks after withdrawal
# [13] = rats, oral LD50/10 once a day for 90 days
compound,measurement,setting,value
"N.N.O=C([O-])C1(C(=O)[O-])CCC1.[Pt+2] [Carboplatin, carboplatin, reference compound]",IC50,[1],9.3 µg/mL
same,stability in water,Stability in water,lose effectiveness in one day
same,IC50,[2],8.45 µg/mL
same,Solubility in water,Solubility in water,1.5 g/100 ml
same,LD50 abdominal administration,nude mice; administered abdominally,130 mg/kg
same,effectiveness on oral administration,[3],ineffective
"N.N.[Cl][Pt][Cl] [Cisplatin, cis-dichlorodiaminoplatin]",stability in water,Stability in water,lose effectiveness in one day
same,effectiveness on oral administration,[3],ineffective
"O=P1(N(CCCl)CCCl)NCCCO1 (stereo not shown) [cyclophosphamide, reference compound]",inhibition rate,human hepatic cancer H22; [11],73.15%
same,state of the mice,human hepatic cancer H22; [11],most of the mice were near death
"Double 1,1-Cyclopropane Dicarboxylic Acid Diaminoplatin Complex",antitumor effects compared with bicycloplatin,[4],superior
same,solubility in water compared with bicycloplatin,Solubility in water,less soluble in water
same,LD50,nude mice; injected,180 mg/kg
"double 1,1-cyclobutane dicarboxylic acid diaminoplatin complex [bicycloplatin]",IC50,[1],2.8 µg/mL
same,cell death,[5],Five days later cell death occurred
same,changes of the ultra-microstructure,[5],degenerative changes of different degrees with the increase of the concentration of drug; also recorded: degenerative changes of different degrees with the increase of the concentration of bicycloplatin
same,antitumor effects on S180,carnuncle S180; 10-30 mg/kg,potent antitumor effects on S180 dependent on doses
same,Body Weight After Injection,"carnuncle S180; S180, 10 mg/kg",25.8 g
same,Response rate,"carnuncle S180; S180, 10 mg/kg",39.7%
same,Tumor Weight,"carnuncle S180; S180, 10 mg/kg",1.03 ± 0.30 g
same,Mice After Injection,"carnuncle S180; S180, 10 mg/kg",10
same,Body Weight After Injection,"carnuncle S180; S180, 20 mg/kg",18.1 g
same,Response rate,"carnuncle S180; S180, 20 mg/kg",68.0%
same,Tumor Weight,"carnuncle S180; S180, 20 mg/kg",0.54 ± 0.16 g
same,Mice After Injection,"carnuncle S180; S180, 20 mg/kg",10
same,Body Weight After Injection,"carnuncle S180; S180, 30 mg/kg",21.5 g
same,Response rate,"carnuncle S180; S180, 30 mg/kg",71.0%
same,Tumor Weight,"carnuncle S180; S180, 30 mg/kg",0.49 ± 0.16 g
same,Mice After Injection,"carnuncle S180; S180, 30 mg/kg",10
same,lung cancer cells killed,lung cancer cells,50%
same,death of nude mice,human hepatic cancer H22; every group containing ten mice,No death of nude mice was observed
same,response carcinostatic rate,human hepatic cancer H22; large dose (LD50×⅕),50.85%
same,response carcinostatic rate,human hepatic cancer H22; middle dose (LD50×1/10),57.40%
same,response carcinostatic rate,human hepatic cancer H22; small dose (LD50×1/20),35.20%
same,antitumor spectrum,[4],Broad Antitumor Spectrum
same,melanoma cells (melanophore) killed,melanoma cells,80%
same,"BUN, GPT, GOT versus control group",rats; [12],no significant difference
same,"WBC, RBC, hemoglobin, platelet",rats; [12],all within normal ranges
same,"histological examination, livers and spleens",rats; after observation,different degrees of hyperemia and edema
same,"histological examination, other visceras",rats; after observation,No organic changes caused by the drug are found
same,other visceral coefficients,rats; after observation,all normal
same,weights of the livers,"rats; after observation, versus control group",slightly heavier than that of the control group
same,"diet, activity and state of the rats",rats; [13],no obvious abnormality
same,mortality,rats; [13],No mortally occurred
same,injuries of the drug to viscera,"rats; rats, three months of administration",dose-dependent
same,damage and recovery,rats; small dose,does a little damage to the group and the group can recover fully
same,reversibility of injuries,rats; therapeutic dose,alleviated after one month of withdrawal
same,abnormal manifestations,Kunming mice; IP 96-400 mg/kg,did not occur except local irritation of the high concentration
same,time of death,Kunming mice; IP 96-400 mg/kg,on the 3rd to 7th day
same,LD50±SE,"Kunming mice; Kunming mice, IP once a day for ten consecutive days, Bliss method",210.5 ± 1.14 mg/kg
same,LD50 compared with cisplatin and carboplatin,Kunming mice; determined under the same condition,significantly higher than the LD50 of cisplatin and carboplatin
same,adverse reactions,[6],no adverse reactions occur
same,tumor,"cancer; Patient Li, end of the 2nd course of treatment",basically disappeared
same,lung metastatic carcinoma,"cancer; Patient Ma, hepatic cancer, capsules and injections, after two months",disappeared
same,outcome,"cancer; Patient Meng, adenocarcinoma of lung at late stage, injections and oral capsules",cured in general
same,final outcome,"cancer; Patient Wang, late hepatic cancer",the tumor disappeared
same,outcome,"cancer; Patient Yang, melanoma, metastasis to liver and lung, 36 ampoules",The metastatic tumors had been cured and the melanoma had necrosed
same,three masses with size of 2×2 cm^2,"cancer; Patient Zhu, cystic cancer, oral capsules",disappeared completely
same,metastasis to liver,"cancer; foreign patient, intestinal cancer, 36 ampoules and 36 oral capsules",disappeared
same,IC50,[2],1.3 µg/mL
same,Response rate,"[7]; BGC-823, 0.78 μg/ml",6.0%
same,Response rate,"[7]; BGC-823, 1.56 μg/ml",19.0%
same,Response rate,"[7]; BGC-823, 3.13 μg/ml",21.0%
same,Response rate,"[7]; BGC-823, 6.25 μg/ml",33.0%
same,Response rate,"[7]; BGC-823, 12.5 μg/ml",51.0%
same,Response rate,"[7]; BGC-823, 25 μg/ml",60.0%
same,Response rate,"[7]; BGC-823, 50 μg/ml",74.6%
same,Response rate,"[7]; BGC-823, 100 μg/ml",80.3%
same,Response rate,"[7]; BGC-823, 200 μg/ml",83.3%
same,IC50,"[7]; BGC-823, 72 hours",IC50 = 14.80 ± 1.34 μg/ml
same,response carcinostatic rate,[8]; large dose (LD50×⅕),90%
same,response carcinostatic rate,[8]; middle dose (LD50×1/10),95%
same,response carcinostatic rate,[8]; small dose (LD50×1/20),70%
same,carcinostatic rates,"[8]; same doses given by stomach lavage, compared with abdominal injection",a little lower carcinostatic rates
same,IC50,"[9]; KB cells, 72 hours",IC50 = 13.24 ± 1.33 μg/ml
same,Response rate,[9]; 0.78 μg/ml,5.9%
same,Response rate,[9]; 1.56 μg/ml,14.8%
same,Response rate,[9]; 3.13 μg/ml,28.2%
same,Response rate,[9]; 6.25 μg/ml,26.2%
same,Response rate,[9]; 12.5 μg/ml,36.7%
same,Response rate,[9]; 25 μg/ml,66.6%
same,Response rate,[9]; 50 μg/ml,77.1%
same,Response rate,[9]; 100 μg/ml,93.0%
same,Response rate,[9]; 200 μg/ml,93.3%
same,Body Weight After Injection,"hepatic cancer H22 cells; H22, 10 mg/kg",27.9 g
same,Response rate,"hepatic cancer H22 cells; H22, 10 mg/kg",40.4%
same,Tumor Weight,"hepatic cancer H22 cells; H22, 10 mg/kg abdominally",0.95 ± 0.29 g
same,Mice After Injection,"hepatic cancer H22 cells; H22, 10 mg/kg",10
same,Body Weight After Injection,"hepatic cancer H22 cells; H22, 20 mg/kg",24.4 g
same,Response rate,"hepatic cancer H22 cells; H22, 20 mg/kg",67.0%
same,Tumor Weight,"hepatic cancer H22 cells; H22, 20 mg/kg abdominally",0.53 ± 0.26 g
same,Mice After Injection,"hepatic cancer H22 cells; H22, 20 mg/kg",10
same,Body Weight After Injection,"hepatic cancer H22 cells; H22, 30 mg/kg",22.4 g
same,Response rate,"hepatic cancer H22 cells; H22, 30 mg/kg",78.6%
same,Tumor Weight,"hepatic cancer H22 cells; H22, 30 mg/kg abdominally",0.34 ± 0.09 g
same,Mice After Injection,"hepatic cancer H22 cells; H22, 30 mg/kg",10
same,mortality,"hepatic cancer H22 cells; H22, 10-30 mg/kg",no mortality occurs
same,weight gain of the treated groups,"hepatic cancer H22 cells; H22, 10-30 mg/kg, versus control group",less than that of the control group
same,effectiveness on oral administration,[3],significant therapeutic effects
same,inhibition of growth of BEL-7402 cells,[10],could inhibit the growth of human hepatic cancer BEL-7402 cells cultured in vitro dependent on time and dose; also recorded: potent antitumor effects on human hepatic cancer BEL-7402 cells dependent on doses
